Among the data in PubChem BioAssay AID2765 (Broad Institute, 2010) are EC50 values, retold here.

Structures are written as SMILES. pEC50: −log10 of the molar value. Activity calls are given as the source filed them.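 The calls were made as follows: active = half-maximal concentration for the rise in caspase light signal at or below ten times the top tested dose; inconclusive = flat fit between 30% and 70% activity, or unreliable curve fit; inactive = the rest.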 A value given as a limit tells only on which side of the number the result lay.

For the experiment, the system named is MEF A1-2A-BIM cells, caspase 3/7 luminescence, 3 h. In words: caspase activation in A1-2A-BIM MEF cells, dose response, A1 inhibitor project, cell-based, luminescence, retest (AID 2765).
For `COc1cc(NC(=O)c2cccs2)ccc1NC(=O)c1cc2ccccc2o1`, the EC50 – broadly, the concentration needed to bring the measured effect to its halfway point – was > 35 µM (inactive). On the same count and under the same terms, the figure for `CCS(=O)(=O)c1ncc(Cl)c(C(=O)Nc2ccccc2OC)n1` is > 35 µM (inactive); for `O=C(NCCCNc1ccc(C(F)(F)F)cc1[N+](=O)[O-])c1ccc(F)cc1` it is > 35 µM (inactive); for `COc1ccccc1C(=O)NC(=O)COC(=O)CCS(=O)(=O)c1ccc(C)cc1` it is > 35 µM (inactive). Still for that read-out and setting: the figure for `CCCOC(=O)Nc1ccc([As](=O)(O)O)cc1NC(=O)OCCC` is > 35 µM (inactive); for `Cc1cc(=O)n2nc(N3CCCC(C(=O)NCCc4ccc(Cl)cc4)C3)sc2n1` (stereo unspecified) it is > 35 µM (inactive).

In the case of `Cc1cc(Cl)ccc1OCC(=O)OCC(=O)c1c(N)n(C)c(=O)n(C)c1=O`, the EC50 is > 35 µM (inactive). In the case of `COc1ccc(OC)c(/C=C/C(=O)N(C)CC(=O)Nc2cc(C)ccc2C)c1`, the EC50 is > 35 µM (inactive). Same read-out and setting: the value for `C=CCNC(=O)c1ccccc1NC(=O)COc1ccccc1` was > 35 µM (inactive); that for `N#CCn1nnc(-c2ccc3c(c2)OCO3)n1` was > 35 µM (inactive); that for `Cc1c(O)c(=O)ccn1Cc1ccccc1` was > 35 µM (inactive). On the same count and under the same terms, the figure for `CCOCCCNC(=O)c1ccc(N2CC3CC(C2)c2cccc(=O)n2C3)c(NC(=O)Nc2cccc(OC)c2)c1` (stereo unspecified) is > 35 µM (inactive); for `Cc1nc(-c2ccc(F)cc2)c(CC(=O)N(C)CC(=O)Nc2ccccc2Cl)s1` it is > 35 µM (inactive). Same read-out and setting: the figure for `CC(C)c1cccc(-c2ccc3c(c2)S(=O)(=O)c2cccc(C(=O)NC4CCCC4)c2C3=O)c1` is > 35 µM (inactive); for `CCN1CCN(c2nc3ccccc3nc2NS(=O)(=O)c2ccc(NC(C)=O)cc2)CC1` it is > 35 µM (inactive); for `COc1ccc(CNC(=O)CN(Cc2ccc(Cl)cc2)S(=O)(=O)c2ccccc2)cc1` it is > 35 µM (inactive). Turning to `CC(C)C(=O)Nc1cc(S(=O)(=O)N2CCOCC2)ccc1N1CCCCC1`, the EC50 was > 35 µM (inactive). On the same count and under the same terms, the figure for `COc1ccc(NC(=O)CSc2nc3ccc(Nc4nc(N5CCOCC5)nc(N5CCOCC5)n4)cc3s2)cc1` is > 35 µM (inactive). For the molecule `COc1ccc(-c2ccc3c(c2)S(=O)(=O)c2cccc(C(=O)NCc4cccc(OC(F)(F)F)c4)c2C3=O)cc1OC`, the pEC50 (commonly the negative decadic logarithm of the EC50, by convention in mol/L) is 4.69. Regarding `CCNC(=O)/C(C#N)=C/c1c(N2CCN(C)CC2)nc2c(C)cccn2c1=O`, the EC50 was > 35 µM (inactive). As to `CCOC(=O)c1c(C)nc2sc(C(=O)Nc3ccc(C(C)=O)cc3)c(N)c2c1-c1ccc(OC)cc1`, the EC50 was > 35 µM (inactive).

For the molecule `COc1ccc(CNC(=O)Cc2cccs2)cc1OC`, the EC50 is > 35 µM (inactive). Consider `Cc1cc(N2CCN(c3ccccc3)CC2)nc(-c2ccccc2)n1`, for which the EC50 is > 35 µM (inactive).

On to `Cc1cc(C(=O)N2CCN(c3ccc(F)cc3)CC2)on1`, for which the EC50 is > 35 µM (inactive). Still for that read-out and setting: the figure for `CCOc1ccccc1OCCC(=O)N1CCN(S(=O)(=O)c2ccccc2[N+](=O)[O-])CC1` is > 35 µM (inactive); for `NC(=S)NNC(=O)/C(=C/c1ccc(Br)cc1)NC(=O)c1ccccc1` it is > 35 µM (inactive). Same read-out and setting: the figure for `CC(C)CNC(=S)N(Cc1ccco1)Cc1cc2cc3c(cc2[nH]c1=O)OCCO3` is > 35 µM (inactive); for `Cc1cc(C)cc(Cn2ncc(Cl)c(Cl)c2=O)c1` it is > 35 µM (inactive). Same read-out and setting: the figure for `CC(=O)c1ccc(N2CCN(S(=O)(=O)c3c(C(=O)N4CCCC4)c(C)n(C)c3C)CC2)cc1` is > 35 µM (inactive); for `O=C(Nc1ccccc1C(=O)N1CCCCCC1)c1ccc(Cl)cc1` it is > 35 µM (inactive); for `Cc1ccc(N2CCN(C(=S)Nc3ccccc3C)CC2)cc1` it is > 35 µM (inactive). For `Cc1ccc(CCC(=O)Nc2ccc(Br)cc2)o1`, the EC50 is > 35 µM (inactive). Consider `CCOC(=O)/C(=C\c1ccc(OC(F)F)cc1)C1=Nn2c(nnc2-c2ccc(Cl)cc2)SC1`, for which the pEC50 is 5.21. In the case of `CN(c1ccccc1C(=O)Nc1cccc(C(F)(F)F)c1)S(C)(=O)=O`, the EC50 was > 35 µM (inactive).

With `COc1cc2sc(-c3ccc(S(C)(=O)=O)cc3)c(C(=O)NCCCCO)c2cc1OC`, the EC50 was > 35 µM (inactive). Same read-out and setting: the value for `Cc1ccc(S(=O)(=O)NCC(=O)OC2CCOC2=O)cc1` (stereo unspecified) was > 35 µM (inactive); that for `Cc1ccc(OC(=O)C2CCN(C(=O)c3ccccc3C)CC2)c(Br)c1` was > 35 µM (inactive). The same measure, in the same setting: the value for `Cc1cccc(C)c1NC(=O)c1cnccn1` was > 35 µM (inactive).

Take `CN(C)C(=O)c1ccc(OCC(F)(F)F)nc1`: the EC50 was > 35 µM (inactive). The same measure, in the same setting: the figure for `C[C@H](CO)N1C[C@H](C)[C@H](CN(C)Cc2ccc(-c3ccccc3)cc2)Oc2ccc(NS(=O)(=O)c3ccccc3)cc2CC1=O` is > 35 µM (inactive); for `CCN(CC)S(=O)(=O)c1cc(C(=O)Nc2ccccc2[N+](=O)[O-])ccc1Cl` it is > 35 µM (inactive). On the same count and under the same terms, the figure for `CN(C)Cc1ccc(O)c(CCc2ccccc2)n1` is > 35 µM (inactive). On the same count and under the same terms, the value for `CCC(=O)c1ccc(N2CCN(C(=O)Cc3ccccc3)CC2)c(F)c1` was > 35 µM (inactive); that for `Cc1cc(Br)c2c(c1)C1(OCCO1)C(=O)N2` was > 35 µM (inactive); that for `COC(=O)c1ccc(NC(=O)CCN2CCN(c3ccccc3)CC2)cc1` was > 35 µM (inactive). With `O=C(CSc1cccc[n+]1[O-])NC1CCCCC1`, the EC50 was > 35 µM (inactive). On the same count and under the same terms, the value for `CCOc1ccc(NC(=O)CSc2nnc(Cc3cccn3C)n2-c2ccc(F)cc2)cc1` was > 35 µM (inactive); that for `CC(C)CC(=O)Nc1ccc2c(c1)OCO2` was > 35 µM (inactive). On the same count and under the same terms, the figure for `CC1(C)CC(=O)c2cc3c(N)c(C(=O)NCc4ccccc4)sc3nc2C1` is > 35 µM (inactive); for `Cc1ccc(OCCC(=O)Nc2ccccc2C(=O)NC2CC2)cc1` it is > 35 µM (inactive). As for `COC(=O)C(C)Oc1cc(OC(C)C(=O)OC)c2c(-c3ccccc3)cc(=O)oc2c1` (stereo unspecified), the EC50 was > 35 µM (inactive). For `O=C(COc1ccccc1[N+](=O)[O-])Nc1ccc(NC(=O)c2cc3ccccc3o2)cc1`, the negative logarithm of the EC50 (pEC50) is 4.56. For `NS(=O)(=O)c1ccc(NC(=O)CN2CCc3ccccc32)cc1`, the EC50 was > 35 µM (inactive).

Consider `CONC(=O)c1cc(OCC(F)(F)F)ccc1OCC(F)(F)F`, for which the EC50 is > 35 µM (inactive).

On to `O=C(CCC(=O)c1cccs1)OCC(=O)c1ccccc1`, for which the EC50 was > 35 µM (inactive). Take `COc1cccc(-c2cc(C(F)(F)F)c(C#N)c(=O)[nH]2)c1`: the EC50 is > 35 µM (inactive).

On to `Cc1cc(C)n(S(=O)(=O)c2ccc(C)c(C)c2C)n1`, for which the EC50 was > 35 µM (inactive).

Regarding `COC(=O)[C@]1(C)CCC[C@@]2(C)C3CC[C@@]4(C)C[C@]3(CCC21)CC4=NO` (stereo partly specified), the EC50 was > 35 µM (inactive).

Take `OC(COc1ccc2ccccc2c1Br)Cn1ccnc1` (stereo unspecified): the EC50 is > 35 µM (inactive). Same read-out and setting: the figure for `NCCCC[C@H](N[C@@H](CCc1ccccc1)C(=O)O)C(=O)N1CCC[C@H]1C(=O)O` is > 35 µM (inactive).

With `CCOC(=O)/C=c1\s/c(=C\c2ccc(C#N)cc2)c(=O)n1CC(=O)Nc1cccc(C)c1C`, the pEC50 is 5.50.
